Data taken from patent publication US10603298B2, “Succinate dehydrogenase inhibitors (SDHi's)” (Medical Research Council, priority 2014, dated 2020).

Assays:
[1] = test system: complex II; conditions: cited from earlier work; for concentration to achieve half-maximal inhibition: Drose et al 2011
[2] = test system: heart, simulated ischemia-reperfusion injury; conditions: Wojtovich et al 2009; mKATP channel dependent mechanism; cited from earlier work
[3] = test system: succinate accumulation in the ischaemic myocardium; experiment: Succinate accumulation in the ischaemic myocardium in vivo (LC-MS); conditions: i.v. infusion in vivo, mouse; 30 min ischaemia
Method: For the in vivo heart IR model an open-chest, in situ heart model was used^31,32. Male mice (8-10 weeks; Charles River Laboratories, UK) were anaesthetised with sodium pentobarbital (70 mg/kg intraperitoneally (i.p.)), intubated endotracheally and ventilated with 3 cm H2O positive-end expiratory pressure. Adequacy of anaesthesia was monitored using corneal and withdrawal reflexes. Ventilation frequency was kept at 110 breaths per minute with tidal volume between 125-150 μL. A thoracotomy was performed and the heart exposed by stripping the pericardium. A prominent branch of the left anterior descending coronary artery (LAD) was surrounded by a 7-0 Prolene suture that was then passed through a small plastic tube. Ischaemia was induced by tightening the tubing against the heart surface. To assess metabolites during IR in vivo, mice were divided into three groups: 30 min ischaemia, 30 min ischaemia plus 5 min reperfusion and 30 min sham-operation in which the suture was placed but the LAD was not occluded. At the end of each protocol tissue was removed from the at risk and peripheral areas of the heart, selected visually by comparing white versus red tissue, and snap-frozen in liquid nitrogen. Sham-operated tissue was removed from the presumed risk zone. Infarct size was assessed after 30 min of ischaemia followed by 120 min reperfusion using 2% triphenyltetrazolium chloride staining and is expressed as a percentage of the risk zone^33. […] For the LC separation, column A was Sequant Zic-Hilic (150 mm×4.6 mm, internal diameter 3.5 μm) with a guard column (20 mm×2.1 mm 3.5 μm) from HiChrom, Reading, UK. […] (150 mm×2.1 mm i.d. 3.5 μm) with guard column (20 mm×2.1 mm i.d. […]) from HiChrom, Reading, UK. […] Spectra were analysed using both targeted and untargeted approaches. For the targeted approach spectra were analysed using XCalibur Qual Browser and XCalibur Quan Browser softwares (Thermo Scientific) by referencing to an internal library of compounds. […] The arrays of spectra were then statistically analysed using the functions explore.data and univariate of the R package mum a^40.

[4] = test system: ischemia-reperfusion injury; conditions: chemical preconditioning, rats; Hu et al, Hirata et al; cited from earlier work
[5] = test system: ischaemic succinate accumulation (GABA shunt); experiment: Ex vivo perfused mouse heart, no flow ischaemia: succinate abundance (LC-MS); conditions: 30 min no flow ischaemia, vigabatrin 100, 300, 700 μM
Method: FIG. 9: Effect of GABA transaminase inhibition by vigabatrin on GABA shunt and CAC metabolites in the ischaemic myocardium. Perfused mouse hearts were subjected to 30 min no flow ischaemia±continuous infusion of vigabatrin (Vig; 100, 300, and 700 μM) 10 min prior to ischaemia. Heart tissue was snap frozen and a, GABA and b, succinate abundance quantified relative to normoxic levels by LC-MS. n=3, * p<0.05.
Mice were heparinised (200 U i.p.) and anaesthetised with sodium pentobarbital (100 mg/kg i.p.). […]
Equal amounts wet weight murine tissue were lysed in 250 μL extraction solution (ES; 30% acetonitrile, 50% methanol and 20% water) per 10 mg tissue in Precellysis 24 vials, following the manufacturer's instructions. […] For the LC separation, column A was Sequant Zic-Hilic (150 mm×4.6 mm, internal diameter 3.5 μm) with a guard column (20 mm×2.1 mm 3.5 μm) from HiChrom, Reading, UK. […] Gradient: 0-3 min 80% B, 25 min 20% B, 26 min 80% B, 36 min 80% B. Column B was sequant Zic-pHilic (150 mm×2.1 mm i.d. 3.5 μm) with guard column (20 mm×2.1 mm i.d. 3.5 Mm) from HiChrom, Reading, UK. […] Spectra were analysed using both targeted and untargeted approaches. For the targeted approach spectra were analysed using XCalibur Qual Browser and XCalibur Quan Browser softwares (Thermo Scientific) by referencing to an internal library of compounds. […]

O=C(CC(=O)C(F)(F)F)c1cccs1 [TTFA, 2-thenoyltrifluoroacetone]
reversibility of complex II inhibition [1]: irreversible

COc1[nH]c(=O)c(C(=O)[C@@H](C)C[C@H](C)[C@@H](Cl)CCl)c(O)c1OC [atpennin A5]
concentration to achieve half-maximal inhibition [1]: nanomolar levels | reversibility of complex II inhibition [1]: irreversible | protection of the heart against simulated ischemia-reperfusion injury [2]: protects the heart against simulated ischemia-reperfusion injury

NC(=O)c1ncn([C@@H]2O[C@H](CO)[C@@H](O)[C@H]2O)c1N [AICAR, 5-amino-1-β-D-ribofuranosyl-imidazole-4-carboxamide]
succinate accumulation in the ischaemic myocardium [3]: decreased ischaemic succinate levels

NOCC(=O)O [AOA, aminooxyacetate]
succinate accumulation in the ischaemic myocardium [3]: decreased ischaemic succinate levels

O=C(O)CC[N+](=O)[O-] [3-nitropropionate]
reversibility of complex II inhibition [1]: irreversible | ischemia-reperfusion injury [4]: reduced ischemia-reperfusion injury

O=C(O)CC(=O)O [malonate]
concentration to achieve half-maximal inhibition [1]: millimolar levels

C=CC(N)CCC(=O)O (stereo not shown) [vigabatrin]
ischaemic succinate accumulation [5]: did not decrease ischaemic succinate accumulation
